Laboratory results from patent publication US8859584B2, “TRPV1 antagonists” (AbbVie Inc., priority 2011, dated 2014).

What was measured:
human TRPV1 [1] = target: T1, human TRPV1 (Homo sapiens, UniProt Q8NER1); experiment: Capsaicin Activation Assay (FLIPR intracellular Ca2+, recombinant HEK293 cells); format: cell-based; conditions: recombinant HEK293 cells expressing hTRPV1; 50 nM capsaicin; read-out: human TRPV1 capsaicin IC50
T1 construct: expressed in transfected cells
Experimental: (i) Capsaicin Activation Assay
Dulbecco's modified Eagle medium (DMEM) (with 4.5 mg/mL glucose) and fetal bovine serum were obtained from Hyclone Laboratories, Inc. (Logan, Utah). Dulbecco's phosphate-buffered saline (DPBS) (with 1 mg/mL glucose and 3.6 mg/l Na pyruvate, without phenol red), L-glutamine, hygromycin B, and Lipofectamine® were obtained from Life Technologies (Grand Island, N.Y.). G418 sulfate was obtained from Calbiochem-Novabiochem Corp. (San Diego, Calif.). Capsaicin (8-methyl-N-vanillyl-6-nonenamide) was obtained from Sigma-Aldrich, Co. (St. Louis, Mo.). Fluo-4 AM (N-[4-[6-[(acetyloxy)-methoxy]-2,7-difluoro-3-oxo-3H-xanthen-9-yl]-2-[2-[2-[bis[2-[(acetyloxy)methoxy]-2-oxyethyl]amino]-5-methylphenoxy]ethoxy]phenyl]-N-[2-[(acetyloxy)methoxy]-2-oxyethyl]-glycine, (acetyloxy)methyl ester) was purchased from Molecular Probes (Eugene, Oreg.).
(§1) Expression plasmids encoding the hTRPV1 cDNA were transfected into HEK293 cells using Lipofectamine®. Forty-eight hours after transfection, the neomycin-resistant cells were selected with growth medium containing 800 μg/mL Geneticin (Life Technologies, formerly Gibco BRL). Surviving individual colonies were isolated and screened for TRPV1 activity. Cells expressing recombinant TRPV1 were maintained at 37° C. in DMEM containing 4 mM L-glutamine, 300 μg/mL G418 (Calbiochem) and 10% fetal bovine serum under a humidified 5% CO2 atmosphere.
The functional activity of compounds at the TRPV1 receptor was determined by measurement of intracellular Ca^2+ levels ([Ca^2+]i) using the Fluorescence Imaging Plate Reader (FLIPR)TETRA®. All compounds were tested over a 12-point one-third-log concentration range. Compound stocks, 10 mM, were prepared in DMSO, and diluted serially across a 384-well plate using a Bravo BenchCel workstation (Agilent Technologies, Santa Clara, Calif.). A stock concentration of capsaicin (10 mM) was made in DMSO, and diluted in DPBS to a final concentration of 200 nM (4×). On the day prior to the experiment, the recombinant HEK293 cells expressing human TRPV1 (hTRPV1) were removed from tissue culture flasks and plated in growth medium into black-walled clear-bottom 384-well Biocoat™ poly-D-lysine assay plates (BD Biosciences, Bedford, Mass.) using a Multidrop® dispenser (ThermoScientific, Waltham, Mass.). […] The plated cells were incubated for 90-120 minutes in the dark at room temperature and then test compound was added to each well. Three minutes later, 200 nM capsaicin (4×) solution was added to each well in an amount sufficient to provide a final assay volume of 80 μL and capsaicin concentration of 50 nM. Fluorescence readings were made at 1 to 5 second intervals over the course of the experimental run. The peak increase in relative fluorescence units (minus baseline) was calculated, and expressed as a percentage of the 50 nM capsaicin (control) response.

human TRPV1 [2] = target: T1, human TRPV1; experiment: Acid Activation Assay (pH 5.0, FLIPR intracellular Ca2+, recombinant HEK293 cells); format: cell-based; conditions: percentage of maximal pH 5.0-induced response remaining; HEK293 hTRPV1; max concentration 37.5 μM
Experimental: (ii) Acid Activation Assay
Dulbecco's modified Eagle's medium (DMEM) with 4.5 mg/mL D-glucose, fetal bovine serum, L-glutamine, and 2-morpholinoethanesulfonic acid (MES) were purchased from Sigma-Aldrich Co. (St. Louis, Mo.). […] The FLIPR® Calcium 4 assay kit was purchased from Molecular Devices (Sunnyvale, Calif.).
as §1
The functional activity of compounds at the TRPV1 receptor was determined by measurement of intracellular Ca^2+ levels ([Ca^2+]i) using the Fluorescence Imaging Plate Reader (FLIPR)TETRA®. […] Compound stocks, 10 mM, were prepared in DMSO, and diluted serially across a 384-well plate using a Bravo BenchCel workstation (Agilent Technologies, Santa Clara, Calif.). On the day prior to the experiment, the recombinant HEK293 cells expressing human TRPV1 (hTRPV1) were removed from tissue culture flasks and plated in growth medium into black-walled clear-bottom 384-well Biocoat™ poly-D-lysine assay plates (BD Biosciences, Bedford, Mass.) using a Multidrop® dispenser (ThermoScientific, Waltham, Mass.). […] The plated cells were incubated for 90-120 min in the dark at 25° C. The test compounds dissolved in DMSO were then added to the plates using an Agilent Bravo workstation (Agilent Technologies Inc., Santa Clara, Calif.). Three minutes later, a pH 5.0 solution was added to each well. Reagents were delivered at a rate of 40 μL/sec, and the final assay volume was 80 μL. Acidic pH solutions were prepared by titration of DPBS/MES with 1 N HCl. The intensity of the fluorescence was captured and digitally transferred to an interfaced PC. The maximum peak measured for the concentration range tested was used to calculate the corresponding peak increase in fluorescence over baseline (relative fluorescence units) which was expressed as the percentage (max % remain) of the maximal pH 5.0-induced response.

T1 sequence (Q8NER1 whole entry): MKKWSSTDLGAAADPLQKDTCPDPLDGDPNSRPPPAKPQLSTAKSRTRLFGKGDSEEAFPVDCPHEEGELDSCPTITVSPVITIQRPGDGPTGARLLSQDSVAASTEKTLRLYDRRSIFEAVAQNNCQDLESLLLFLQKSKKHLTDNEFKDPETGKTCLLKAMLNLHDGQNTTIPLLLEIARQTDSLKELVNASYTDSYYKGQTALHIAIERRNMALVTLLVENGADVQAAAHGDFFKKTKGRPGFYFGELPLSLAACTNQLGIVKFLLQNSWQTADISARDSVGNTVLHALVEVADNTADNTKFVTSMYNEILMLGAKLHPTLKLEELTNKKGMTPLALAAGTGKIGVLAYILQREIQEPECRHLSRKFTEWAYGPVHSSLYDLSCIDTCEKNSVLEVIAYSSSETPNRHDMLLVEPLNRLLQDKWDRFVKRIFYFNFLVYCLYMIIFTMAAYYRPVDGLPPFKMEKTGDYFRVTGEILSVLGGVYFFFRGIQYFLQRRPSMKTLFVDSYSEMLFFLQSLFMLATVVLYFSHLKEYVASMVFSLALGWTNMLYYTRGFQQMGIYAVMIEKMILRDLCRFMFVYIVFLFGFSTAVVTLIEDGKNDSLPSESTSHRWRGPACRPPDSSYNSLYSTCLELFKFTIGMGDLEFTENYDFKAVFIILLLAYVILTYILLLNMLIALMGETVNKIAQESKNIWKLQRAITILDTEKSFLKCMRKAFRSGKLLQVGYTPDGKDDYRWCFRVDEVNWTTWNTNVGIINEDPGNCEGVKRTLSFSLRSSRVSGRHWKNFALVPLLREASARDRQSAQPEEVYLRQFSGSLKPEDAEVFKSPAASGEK

SMILES	IC50 (human TRPV1 [1])	human TRPV1 H+ (max % remain) (human TRPV1 [2])
CN1CC[C@@H](NC(=O)Nc2cccc3c2C[C@H](O)C3)c2ccc(C(F)(F)F)cc21 [Example 23, 1-[(2R)-2-hydroxy-2,3-dihydro-1H-inden-4-yl]-3-[(4R)-1-methyl-7-(trifluoromethyl)-1,2,3,4-tetrahydroquinolin-4-yl]urea]	51 nM	74%
O=C(Nc1cccc2c1C[C@@H](O)C2)N[C@@H]1CC(CF)(CF)Oc2cc(Cl)ccc21 [Example 24, 1-[(4R)-7-chloro-2,2-bis(fluoromethyl)-3,4-dihydro-2H-chromen-4-yl]-3-[(2S)-2-hydroxy-2,3-dihydro-1H-inden-4-yl]urea]	27 nM	6%
C[C@]1(CF)C[C@@H](NC(=O)Nc2c(F)ccc3c2CC(O)C3)c2ccc(Cl)cc2O1 (stereo partly drawn) [Example 25, 1-[(2R,4R)-7-chloro-2-(fluoromethyl)-2-methyl-3,4-dihydro-2H-chromen-4-yl]-3-(5-fluoro-2-hydroxy-2,3-dihydro-1H-inden-4-yl)urea]	41 nM	30%
O=C(NCC1CCc2cc(C(F)(F)F)ccc2O1)Nc1cccc2c1C[C@H](O)C2 (stereo partly drawn) [Example 26, 1-[(2R)-2-hydroxy-2,3-dihydro-1H-inden-4-yl]-3-{[6-(trifluoromethyl)-3,4-dihydro-2H-chromen-2-yl]methyl}urea]	770 nM	66%
O=C(Nc1cccc2c1C[C@H](O)C2)N[C@@H]1COc2ccc(Cl)cc2C1 [Example 27, 1-[(3S)-6-chloro-3,4-dihydro-2H-chromen-3-yl]-3-[(2R)-2-hydroxy-2,3-dihydro-1H-inden-4-yl]urea]	97 nM	11%
O=C(NCC1COc2ccc(F)cc2C1)Nc1cccc2c1C[C@H](O)C2 (stereo partly drawn) [Example 28, 1-[(6-fluoro-3,4-dihydro-2H-chromen-3-yl)methyl]-3-[(2R)-2-hydroxy-2,3-dihydro-1H-inden-4-yl]urea]	290 nM	58%
CC1(C)C[C@@H](NC(=O)Nc2cccc3c2C[C@H](O)C3)c2cccc(C(F)(F)F)c2O1 [Example 29, 1-[(4R)-2,2-dimethyl-8-(trifluoromethyl)-3,4-dihydro-2H-chromen-4-yl]-3-[(2R)-2-hydroxy-2,3-dihydro-1H-inden-4-yl]urea]	15 nM	72%
CC1(C)C[C@@H](NC(=O)Nc2cccc3c2C[C@H](O)C3)c2ccc(OC(F)(F)F)cc2O1 [Example 30, 1-[(4R)-2,2-dimethyl-7-(trifluoromethoxy)-3,4-dihydro-2H-chromen-4-yl]-3-[(2R)-2-hydroxy-2,3-dihydro-1H-inden-4-yl]urea]	42 nM	39%
O=C(Nc1cccc2c1C[C@H](O)C2)N[C@@H]1CC(CF)(CF)Oc2cc(OC(F)(F)F)ccc21 [Example 31, 1-[(4R)-2,2-bis(fluoromethyl)-7-(trifluoromethoxy)-3,4-dihydro-2H-chromen-4-yl]-3-[(2R)-2-hydroxy-2,3-dihydro-1H-inden-4-yl]urea]	41 nM	30%
CC1(C)C[C@@H](NC(=O)Nc2cccc3c2C[C@@H](O)C3)c2ccc(F)cc2O1 [Example 32, 1-[(4R)-7-fluoro-2,2-dimethyl-3,4-dihydro-2H-chromen-4-yl]-3-[(2S)-2-hydroxy-2,3-dihydro-1H-inden-4-yl]urea]	74 nM	33%
C[C@]1(C(F)F)C[C@@H](NC(=O)Nc2cccc3c2C[C@H](O)C3)c2ccc(Cl)cc2O1 [Example 33, 1-[(2R,4R)-7-chloro-2-(difluoromethyl)-2-methyl-3,4-dihydro-2H-chromen-4-yl]-3-[(2R)-2-hydroxy-2,3-dihydro-1H-inden-4-yl]urea]	27 nM	51%
CC1(C)C[C@@H](NC(=O)Nc2cccc3c2C[C@@H](O)C3)c2cccc(C(F)(F)F)c2O1 [Example 34, 1-[(4R)-2,2-dimethyl-8-(trifluoromethyl)-3,4-dihydro-2H-chromen-4-yl]-3-[(2S)-2-hydroxy-2,3-dihydro-1H-inden-4-yl]urea]	12 nM	18%
CC1(C)C[C@@H](NC(=O)Nc2cccc3c2C[C@@H](O)C3)c2ccc(Cl)c(F)c2O1 [Example 35, 1-[(4R)-7-chloro-8-fluoro-2,2-dimethyl-3,4-dihydro-2H-chromen-4-yl]-3-[(2S)-2-hydroxy-2,3-dihydro-1H-inden-4-yl]urea]	11 nM	14%
O=C(Nc1cccc2c1C[C@@H](O)C2)N[C@@H]1CCOc2cc(OC(F)(F)F)ccc21 [Example 37, 1-[(2S)-2-hydroxy-2,3-dihydro-1H-inden-4-yl]-3-[(4R)-7-(trifluoromethoxy)-3,4-dihydro-2H-chromen-4-yl]urea]	17 nM	4%
CC1(C)C[C@@H](NC(=O)Nc2cccc3c2C[C@@H](O)C3)c2ccc(F)c(F)c2O1 [Example 38, 1-[(4R)-7,8-difluoro-2,2-dimethyl-3,4-dihydro-2H-chromen-4-yl]-3-[(2S)-2-hydroxy-2,3-dihydro-1H-inden-4-yl]urea]	37 nM	43%
O=C(Nc1cccc2c1C[C@H](O)C2)N[C@@H]1CCc2cc(Cl)ccc21 [Example 39, 1-[(1R)-5-chloro-2,3-dihydro-1H-inden-1-yl]-3-[(2R)-2-hydroxy-2,3-dihydro-1H-inden-4-yl]urea]	25 nM	46%
O=C(Nc1cccc2c1C[C@H](O)C2)N[C@@H]1CCc2c1cccc2C(F)(F)F [Example 41, 1-[(2R)-2-hydroxy-2,3-dihydro-1H-inden-4-yl]-3-[(1R)-4-(trifluoromethyl)-2,3-dihydro-1H-inden-1-yl]urea]	13 nM	56%
O=C(Nc1cccc2c1C[C@H](O)C2)N[C@@H]1CC2(CCC2)Oc2cc(C(F)(F)F)ccc21 [Example 42, 1-[(2R)-2-hydroxy-2,3-dihydro-1H-inden-4-yl]-3-[(4R)-7-(trifluoromethyl)-3,4-dihydrospiro[chromene-2,1′-cyclobutan]-4-yl]urea]	54 nM	20%
C[C@@]1(CF)C[C@@H](NC(=O)Nc2cccc3c2C[C@H](O)C3)c2ccc(C(F)(F)F)cc2O1 [Example 44, 1-[(2S,4R)-2-(fluoromethyl)-2-methyl-7-(trifluoromethyl)-3,4-dihydro-2H-chromen-4-yl]-3-[(2R)-2-hydroxy-2,3-dihydro-1H-inden-4-yl]urea]	42 nM	52%
O=C(Nc1cccc2c1C[C@H](O)C2)N[C@@H]1CC(CF)(CF)Oc2cc(Br)ccc21 [Example 45, 1-[(4R)-7-bromo-2,2-bis(fluoromethyl)-3,4-dihydro-2H-chromen-4-yl]-3-[(2R)-2-hydroxy-2,3-dihydro-1H-inden-4-yl]urea]	43 nM	58%
